Measurements from patent EP0348170A2, “Antiviral pyrimidine derivatives” (Lee, Moses Nam Fong, priority 1988, dated 1989).
Values after ≈ are worked out from the molar mass of the structure shown.

What was measured:
Vero cells = experiment: Effect on the replication of Vero cells; assay type: cell-based; details: for inhibition at 100 µg/mL: Conc. 100 ug/ml
Method: A second experiment shown in Table II herebelow was conducted to show the effects of various compounds on replication of Vero cells. […] This is indicative of much lower toxicity than AZT, (Compound No. 1) which inhibit a much higher percentage of these cells at a given concentration. TABLE II [table]

HIV = experiment: Antiviral assay: inhibition of the killing of HIV-infected T4 lymphocytes (CEM cell line), XTT formazan readout; assay type: cell-based; details: for therapeutic index (IC50 divided by EC50): in cell culture; for EC50: Human immunodeficiency virus 1, CCRF-CEM, read-out: EC50, Inhibition of the killing of HIV-infected T4-lymphocytes
Method: The procedure used in the test for agents active against (HIV) is designed to detect agents acting at any stage of the virus reproductive cycle. The assay basically involves the killing of T4 lymphocytes by HIV. Small amounts of HIV are added to cells, and at least two complete cycles of virus reproduction are necessary to obtain the required cell killing. Agents which interact with virions, cells, or virus gene-products to interfere with viral activities will protect cells from cytolysis. The system is automated in several features to accommodate large numbers of candidate agents, and is generally designed to detect anti-HIV activity. However, compounds which degenerate or are rapidly metabolized in the culture conditions may not show activity in this screen. Also, while every attempt has been made to reduce variability, precise values for EC₅₀, IC₅₀, and Therapeautic Index are not possible. All tests are compared with a positive (AZT-treated) control done at the same time under identical conditions.
• 1. T4 lymphocytes (CEM cell line) are exposed to HIV at a virus to cell ratio approximately 0.05, and plated along with noninfected control cells in 96-well microtiter plates. • 2. The candidate agent is dissolved in dimethyl sulfoxide (unless otherwise instructed), then diluted 1:200 in cell culture medium. Further dilutions (half-log₁₀) are prepared before adding to an equal volume of medium containing either infected or noninfected cells. • 3. Cultures are incubated at 37 °C in a 5% carbon dioxide atmosphere for 6 or 7 days. • 4. The tetrazolium salt, XTT, is added to all wells, and cultures are incubated to allow formazan color development by viable cells. • 5. Individual wells are analyzed spectrophotometrically to quantitate formazan production, and in addition are viewed microscopically for detection of viable cells and confirmation of protective activity. • 6. Drug-treated virus-infected cells are compared with drug-treated noninfected cells and with other appropriate controls (untreated infected and untreated noninfected cells, drug-containing wells without cells, etc.) on the same plate. • 7. Data are reviewed in comparison with other tests done at the same time, and a determination about activity is made.

Row | SMILES | inhibition at 100 µg/mL (Vero cells; Chlorocebus sabaeus, Vero) | therapeutic index (IC50 divided by EC50) (HIV) | EC50 (HIV) | also measured
1 | Cc1cn([C@H]2C[C@H](N=[N+]=[N-])[C@@H](CO)O2)c(=O)[nH]c1=O [AZT, 3′-azido-3′-deoxythymidine, reference compound] | 86% | about 100 | – | inhibition at 10 µg/mL (Vero cells; Chlorocebus sabaeus, Vero, Conc. 10 ug/ml): 21%
2 | Cc1cn([C@H]2C=C(n3ccnn3)[C@@H](CO)O2)c(=O)[nH]c1=O [Compound 2, 1-[2′,3′-Didehydro-2′,3′-dideoxy-3′-(1˝-1˝,2˝,3˝-triazolo)ribofuranosyl]thymine] | – | – | > 100 mg/L | –
3 | C#CC1=C[C@H](n2cc(C)c(=O)[nH]c2=O)O[C@@H]1CO [Compound 3, 1-(2′,3′-Didehydro-2′,3′-dideoxy-3′-ethynylribofuranosyl)thymine] | – | – | > 100 mg/L | –
4 | Cc1cn([C@H]2C=C(C#N)[C@@H](CO)O2)c(=O)[nH]c1=O [Compound 4, 1-(3′-Cyano-2˝,3˝-didehydro-2′,3′-dideoxyribofuranosyl)thymine] | – | – | > 100 mg/L | –
5 | Cc1nnc(S(=O)(=O)C2=C[C@H](n3cc(C)c(=O)[nH]c3=O)O[C@@H]2CO)s1 [Compound 5, 1-[2′,3′-Didehydro-2′,3′-dideoxy-3′-(2˝-sulfono-5˝-methyl-1˝,3˝,4˝-thiadiazolo)ribofuranosyl]thymine] | 20% | ~170 | 4.9 mg/L (≈ 12.7 µM) | inhibition at 50 µg/mL (Vero cells; Chlorocebus sabaeus, Vero, Conc. 50 ug/ml): 0%; inhibition at 75 µg/mL (Vero cells; Chlorocebus sabaeus, Vero, Conc. 75 ug/ml): 10%; inhibition of Vero cells, in words (Vero cells; fast growing Vero cells): little inhibition
